Experimental data: article PMC4941374, “Therapy of pancreatic cancer via an EphA2 receptor-targeted delivery of gemcitabine” (Oncotarget, 2016)
“Also recorded” adds a separate entry of the source.

How the values were obtained:
pancreatic cancer = conditions: 126 patients, 63 per group; ref [3]; cited from earlier work
Text: In 1997, Burris, et al. published a clinical study comparing Gemcitabine to 5-Fluoruracil (5-FU) for the treatment of pancreatic cancer. In this study, 126 patients were enrolled with 63 per treatment group. […] The median survival was 5.65 months for Gemcitabine and 4.41 months for 5-FU. […] This trial encouraged the ...

[1] = biological target: T1, EphA2 ligand binding domain (EphA2-LBD) (Homo sapiens, UniProt P29317); experiment: Isothermal titration calorimetry (ITC), EphA2 LBD; conditions: 50 mM phosphate buffer pH 6.5, 100 mM NaCl, as given in legend
T1 construct: made in house
Protocol: (§1) To further verify the binding affinity and selectivity of the resulting conjugates for the EphA2 ligand binding domain (LBD), we expressed and purified EphA2 and […]. These proteins were dissolved to a final concentration of 100 μM in 50 mM phosphate buffer (pH = 6.5), containing 100 mM NaCl.
(§2) All linear peptides and peptide mimetics were assembled using standard Fmoc peptide synthesis protocol with the Rink amide resin on 433A Peptide Synthesizer (Applied Bio-Systems). In general, in each coupling reaction, approximately 10 equivalents of Fmoc-amino acid, 0.45 M solution of HOBt/HBTU (9 equiv) in DMF, 2 M solution of DIEA in NMP were used, for about 9 minutes. Fmoc de-protection was performed with 20% piperidine in DMF for 10 min. Each peptide was subsequently cleaved from the resin and all protecting groups removed by exposure to a 94% TFA, 2 % water, 2% tri-isopropylsilane, 2% phenol mixture for approximately 3 h. The TFA mixture was subsequently removed under reduced pressure and the peptides were precipitated in diethyl ether, centrifuged, and washed with diethyl ether prior to drying in high vacuum. The crude peptides were purified by preparative reverse phase HPLC. The final compounds were characterized by NMR and MALDI-Mass. […] EphA2-LBD and EphA3-LDB were expressed as reported recently. […]

[2] = test system: MIA PaCa-2-luc pancreatic cancer xenografts; experiment: MIA PaCa-2-luc subcutaneous xenograft, 123B9-L2-Gem study; type: in vivo, human tumor cells in athymic nude mice
Protocol: Similarly, in a separate experiment we compared the efficacy of equimolar doses of Gemcitabine and 123B9-L2-Gem (Figure 3C, 3D).
(§3) Isothermal Titration Calorimetry (ITC) measurements were obtained with Model ITC200 from Microcal/GE Life Sciences. For in vivo studies, all drugs were diluted in 10% Tween-80, 10% DMSO, and 80% PBS.
(§4) 5 × 10^6 MIA PaCa-2-luciferase cells were used to establish bilateral subcutaneous tumors on the flanks of 8–10 week old male athymic nude mice. Studies were done as previously described. Treatment began when tumors reached a palpable size (∼50–100 mm^3) with 9 mice per group. All drugs were administered by tail vein injection twice per week for 4 weeks, for a total of 8 injections. […] BLI measurements were performed at the beginning and end of the study. During imaging, mice were placed in the imaging chamber and maintained with 2% isoflurane gas anesthesia at a flow rate of approximately 0.5–1 L/min per mouse. Anesthetized mice were injected IP with 150 mg/kg body weight D-Luciferin (Xenogen Corporation, Alameda, CA). After approximately 10 min, mice were imaged using a charge-coupled-device (CCD) camera coupled to the Xenogen in vivo imaging (IVIS) imaging system (Caliper Life Sciences, Inc., Hopkinton, MA).
Tumors were measured twice per week using calipers. […]

[3] = test system: EphA3 ligand binding domain (EphA3-LBD); experiment: Isothermal titration calorimetry (ITC), EphA3 LBD; conditions: 50 mM phosphate buffer pH 6.5, 100 mM NaCl, ~50% sequence identity with the EphA2 LBD
Protocol: as §1, §2

hENT1 = test system: hENT1; parameters: method as in PMID 22978251; conditions: sodium-independent transporter; ref [4]; cited from earlier work
Text: (§5) Though there are multiple mechanisms of Gemcitabine resistance, one important mechanism revolves around expression of this protein. […] Patients with higher hENT1 expression have tumors that can more readily take ...

[4] = test system: MIA PaCa-2-luc pancreatic cancer xenografts; experiment: MIA PaCa-2-luc subcutaneous xenograft, YNH-L2-Gemcitabine study; type: in vivo, human tumor cells in athymic nude mice; conditions: for effect on tumor growth: 10 mg/kg Gemcitabine or equimolar conjugate, tail vein, twice per week for 4 weeks, 9 mice/group, caliper tumor volume and BLI; for survival time: Kaplan-Meier, days, mice sacrificed when moribund, Supplementary Figure S2 top
Protocol: MIA PaCa-2-luc cells were used to create bilateral subcutaneous xenografts in athymic nude mice. […] Cells were injected into each flank and then allowed to grow for approximately 1 week. At this point, mice were imaged using BLI and treatment was subsequently initiated. Mice were divided into 4 groups (PBS, Gemcitabine, YDH-L2-Gemcitabine, YNH-L2-Gemcitabine) with 9 mice/group. YDH-L2-Gemcitabine is a scrambled control, where the peptide attached to Gemcitabine should not be specific for EphA2 and, therefore, should not bind to the receptor. Animals were treated 2 times per week via tail vein injection for 4 weeks. A dose of 10 mg/kg Gemcitabine was used along with equimolar doses of YDH-L2-Gemcitabine and YNH-L2-Gemcitabine. At the end of 4 weeks, animals were again imaged and treatment was ended.
as §3, §4
Tumors were measured twice per week using calipers. For in vivo studies, data shown are the mean + SEM and for statistical comparisons we used the two-way Anova analyses (GraphPad). After their last injection, mice were kept for 1 additional week to monitor tumor growth and imaged at the end of that week. The mice were then kept to monitor for the effects of treatment on survival. Mice were kept until reaching a moribund status and they were then sacrificed at that time.

[5] = test system: metastatic pancreatic cancer; parameters: method as in PMID 24131140; conditions: 861 patients, ref [36]; cited from earlier work
Text: There is a vital need to develop novel therapies that provide greater clinical benefit to patients without undue toxicity. A Phase 3 clinical study in patients with metastatic pancreatic cancer evaluated nab-Paclitaxel (Abraxane) + Gemcitabine versus Gemcitabine alone in a total of 861 patients.

tumors expressing hENT1 = test system: tumors expressing hENT1; parameters: method as in PMID 16818496; conditions: high versus lower hENT1 expression; ref [5]; cited from earlier work
Text: as §5

T1 sequence (P29317 28-206 limits assumed): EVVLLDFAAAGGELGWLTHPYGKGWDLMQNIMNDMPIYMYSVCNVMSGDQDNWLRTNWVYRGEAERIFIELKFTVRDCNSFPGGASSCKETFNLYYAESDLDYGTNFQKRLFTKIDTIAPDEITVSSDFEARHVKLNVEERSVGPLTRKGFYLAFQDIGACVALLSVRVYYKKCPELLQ

Row | Compound | median survival (pancreatic cancer) [months] | patients alive at 12-month time point (pancreatic cancer) [%] | patients with clinical benefit (pancreatic cancer) [%] | binding to EphA3 LBD (in words) [3] | effect on tumor growth [4] | survival time [4] | other results
1 | O=c1[nH]cc(F)c(=O)[nH]1 [5-FU, 5-Fluoruracil] | 4.41 | 2 | 4.8 |  |  |  | 
2 | CCCC[C@H](NC(=O)[C@@H]1CCCN1C(=O)[C@@H](NC(=O)[C@H](CO)NC(=O)[C@H](CC(=O)O)NC(=O)[C@@H]1CCCN1C(=O)[C@H](Cc1ccc(O)cc1)NC(=O)[C@H](C)NC(=O)[C@H](CO)NC(=O)COc1ccc(F)c(Cl)c1)C(C)C)C(=O)N[C@@H](CCO)C(=O)N[C@@H](CO)C(=O)N[C@@H](CCCCNC(=O)CCCc1cn(CCCCCC(=O)O[C@@H]2[C@@H](CO)O[C@@H](n3ccc(N)nc3=O)C2(F)F)nn1)C(N)=O [123B9-L2-Gem] |  |  |  | No appreciable binding was detected |  |  | ΔH, binding to EphA2 LBD [1]: -11 kcal/mol; survival time ([2]; Kaplan-Meier, days, mice sacrificed when moribund, Supplementary Figure S2 bottom): significantly longer than both untreated and Gemcitabine treated groups; also recorded: significant increase in survival time; also recorded: prolong survival; effect on tumor growth ([2]; equimolar doses, equivalent of 10 mg/Kg Gemcitabine, tail vein, twice per week for 4 weeks, caliper tumor volume and BLI, 10 mg/kg): significantly more effective than gemcitabine alone in suppressing tumor growth; also recorded: significant efficacy was observed
3 | Nc1ccn([C@@H]2O[C@H](CO)[C@@H](O)C2(F)F)c(=O)n1 [Gemcitabine] | 5.65 | 18 | 23.8 |  | had a modest effect on tumor growth; also recorded: did not exhibit significant efficacy compared to mice treated with vehicle only as control | significant increase in the median survival time compared to untreated mice | transport by hENT1 (hENT1): preferentially transport Gemcitabine; median survival [5]: 6.7 months; response rate [5]: 7%; survival rate at 1 year [5]: 22%; survival rate at 2 years [5]: 4%; survival advantage with high tumor hENT1 expression (tumors expressing hENT1): greater survival advantage with Gemcitabine treatment as compared to those with lower hENT1 expression
4 | CCCC[C@H](NC(=O)[C@@H]1CCCN1C(=O)[C@@H](NC(=O)[C@H](CO)NC(=O)[C@H](CC(=O)O)NC(=O)[C@@H]1CCCN1C(=O)[C@H](Cc1ccc(O)cc1)NC(=O)[C@H](C)NC(=O)[C@H](CO)NC(=O)[C@@H](N)Cc1ccc(O)cc1)C(C)C)C(=O)N[C@@H](CCO)C(=O)N[C@@H](CO)C(=O)N[C@@H](CCCCNC(=O)CCCc1cn(CCCCCC(=O)O[C@@H]2[C@@H](CO)O[C@@H](n3ccc(N)nc3=O)C2(F)F)nn1)C(N)=O [YNH-L2-Gem] |  |  |  | No appreciable binding was detected | significant efficacy was observed | prolong survival | effect on tumor growth ([4]; listed as YNH-L2-Gemcitabine): showed the greatest inhibition of tumor growth of all groups evaluated; also recorded: inhibits tumor growth in vivo to a greater extent as compared to Gemcitabine; survival time ([4]; listed as YNH-L2-Gemcitabine): significant increase in the median survival time compared to untreated mice
